Among the data in patent publication US10464947B2 (Incyte Corporation, priority 2013, dated 2019) are IC50 values, retold here.

Structures can show the parent of a compound that is named as a salt. Where two headings read alike, the source gives them in different places. Where only a bound is given, the exact number is not on record here.

Broadly, the IC50 is the midpoint of a concentration-inhibition curve.

This experiment deals with KMS.12.BM cells. Briefly: KMS.12.BM Cell Viability Assay (Example B1). In kind it is cell-based, human. As to conditions: 3 days, Cell Titer-GLO, read-out: KMS cellular IC50. As for the experimental part: KMS.12.BM cell line (human myeloma) was purchased from JCRB (Osaka, Japan) and maintained in RPMI with 10% FBS culture medium. To measure the cytotoxic activity of the compounds through ATP quantitation, the KMS.12.BM cells are plated in the RPMI culture medium at 5000 cells/well/per 100 μL into a 96-well polystyrene clear black tissue culture plate (Greiner-bio-one through VWR, NJ), in the presence or absence of a concentration range of test compounds. After 3 days, […] Cell Titer-GLO Luminescent (Promega, Madison, Wis.) cell culture agent is added to each well for 10 min. at room temperature to stabilize the luminescent signal. This determines the number of viable cells in culture based on quantitation of the ATP present, which signals the presence of metabolically active cells.
For orientation: ATP-based viability assays read luminescence as a measure of living cells.

For `Cc1noc(C)c1-c1ccc2[nH]c(=O)n3c2c1OCC3c1cccc[n+]1[O-]` (stereo not shown) [Example 16, 7-(3,5-Dimethylisoxazol-4-yl)-4-(1-oxidopyridin-2-yl)-4,5-dihydroimidazo[1,5,4-de][1,4]benzoxazin-2(1H)-one], the 50% inhibitory concentration (IC50) (Homo sapiens, 72 h) was below 1000 nM.
On to `CCC(=O)N1CCCN(c2nc3ccc(-c4c(C)noc4C)c4c3n2[C@@H](c2ccccn2)CO4)CC1` [Example 246, (4S)-7-(3,5-dimethylisoxazol-4-yl)-2-(4-propionyl-1,4-diazepan-1-yl)-4-pyridin-2-yl-4,5-dihydroimidazo[1,5,4-de][1,4]benzoxazine], for which the IC50 (Homo sapiens, 72 h) was below 1000 nM.
Same read-out and setting: next, `CN[C@@H]1CCN(c2nc3ccc(-c4c(C)noc4C)c4c3n2[C@@H](c2ccccn2)CO4)C1` [Example 181A, (3R)-1-[(4S)-7-(3,5-dimethylisoxazol-4-yl)-4-pyridin-2-yl-4,5-dihydroimidazo[1,5,4-de][1,4]benzoxazin-2-yl]-N-methylpyrrolidin-3-amine]: below 1000 nM; `Cc1noc(C)c1-c1ccc2nc(N3CC[C@@H](N(C)C(=O)CC#N)C3)n3c2c1OC[C@@H]3c1ccccn1` [Example 152, 2-Cyano-N-{(3R)-1-[(4S)-7-(3,5-dimethylisoxazol-4-yl)-4-pyridin-2-yl-4,5-dihydroimidazo[1,5,4-de][1,4]benzoxazin-2-yl]pyrrolidin-3-yl}-N-methylacetamide]: below 1000 nM.
Regarding `Cc1noc(C)c1-c1ccc2nc(N3CCNCC3)n3c2c1OCC3c1ccccc1` (stereo not shown) [Example 40, 7-(3,5-Dimethylisoxazol-4-yl)-4-phenyl-2-piperazin-1-yl-4,5-dihydroimidazo[1,5,4-de][1,4]benzoxazine], under “Homo sapiens, KMS-12-BM, 72 h”, the IC50 was below 1000 nM.
As for `Cn1nccc1-c1cc(Br)c2[nH]c(=O)n3c2c1OCC3c1ccccc1` (stereo not shown) [Example 36, 9-Bromo-7-(1-methyl-1H-pyrazol-5-yl)-4-phenyl-4,5-dihydroimidazo[1,5,4-de][1,4]benzoxazin-2(1H)-one], the IC50 (Homo sapiens, 72 h) is below 1000 nM.
Same read-out and setting: the figure for `Cc1noc(C)c1-c1ccc2nc(N3CCC(C)(O)CC3)n3c2c1OC[C@@H]3c1ccccn1` [Example 194, 1-[(4S)-7-(3,5-dimethylisoxazol-4-yl)-4-pyridin-2-yl-4,5-dihydroimidazo[1,5,4-de][1,4]benzoxazin-2-yl]-4-methylpiperidin-4-ol] is below 1000 nM; for `Cc1noc(C)c1-c1ccc2nc(N3CCN(CC(=O)N(C)C)CC3)n3c2c1OC[C@@H]3c1ccccn1` [Example 151, 2-{4-[(4S)-7-(3,5-Dimethylisoxazol-4-yl)-4-pyridin-2-yl-4,5-dihydroimidazo[1,5,4-de][1,4]benzoxazin-2-yl]piperazin-1-yl}-N,N-dimethylacetamide] it is below 1000 nM.
Same read-out and setting: the figure for `Cc1noc(C)c1-c1ccc2ncn3c2c1OCC3c1ccccc1` (stereo not shown) [Example 39, 7-(3,5-Dimethylisoxazol-4-yl)-4-phenyl-4,5-dihydroimidazo[1,5,4-de][1,4]benzoxazine] is below 1000 nM; for `CC(=O)N1CCN(c2nc3ccc(-c4c(C)noc4C)c4c3n2[C@@H](c2ccccn2)CO4)CC1` [Example 224, (4S)-2-(4-acetylpiperazin-1-yl)-7-(3,5-dimethylisoxazol-4-yl)-4-pyridin-2-yl-4,5-dihydroimidazo[1,5,4-de][1,4]benzoxazine] it is below 1000 nM; for `Cc1noc(C)c1-c1cc(CNC(=O)CN(C)C)c2[nH]c(=O)n3c2c1OC[C@@H]3c1ccccn1` [Example 143, 2-(Dimethylamino)-N-{[(4S)-7-(3,5-dimethylisoxazol-4-yl)-2-oxo-4-pyridin-2-yl-1,2,4,5-tetrahydroimidazo[1,5,4-de][1,4]benzoxazin-9-yl]methyl}acetamide] it is below 1000 nM.
Still for that read-out and setting: next, `Cc1noc(C)c1-c1ccc2nc(N3CC[C@@H](NC(=O)C4CCOCC4)C3)n3c2c1OC[C@@H]3c1ccccn1` [Example 213, N-{(3R)-1-[(4S)-7-(3,5-dimethylisoxazol-4-yl)-4-pyridin-2-yl-4,5-dihydroimidazo[1,5,4-de][1,4]benzoxazin-2-yl]pyrrolidin-3-yl}tetrahydro-2H-pyran-4-carboxamide]: below 1000 nM; `CCS(=O)(=O)NC1CN(c2nc3ccc(-c4c(C)noc4C)c4c3n2[C@@H](c2ccccn2)CO4)C1` [Example 238, N-{1-[(4S)-7-(3,5-dimethylisoxazol-4-yl)-4-pyridin-2-yl-4,5-dihydroimidazo[1,5,4-de][1,4]benzoxazin-2-yl]azetidin-3-yl}ethanesulfonamide]: below 1000 nM.
With `CCNC(=O)[C@@H]1CCN(c2nc3ccc(-c4c(C)noc4C)c4c3n2[C@@H](c2ccccn2)CO4)C1` [Example 250, (3R)-1-[(4S)-7-(3,5-dimethylisoxazol-4-yl)-4-pyridin-2-yl-4,5-dihydroimidazo[1,5,4-de][1,4]benzoxazin-2-yl]-N-ethylpyrrolidine-3-carboxamide], the IC50 (Homo sapiens, 72 h) was below 1000 nM.
As to `Cc1noc(C)c1-c1ccc2nc(C3CCN(S(C)(=O)=O)CC3)n3c2c1OC[C@@H]3c1ccccn1` [Example 112, (4S)-7-(3,5-dimethylisoxazol-4-yl)-2-[1-(methylsulfonyl)piperidin-4-yl]-4-pyridin-2-yl-4,5-dihydroimidazo[1,5,4-de][1,4]benzoxazine], for the setting “Homo sapiens, 72 h”, the IC50 is below 1000 nM.
Same read-out and setting: the figure for `Cc1noc(C)c1-c1ccc2nc(N3CCN(CC(=O)N4CCCC4)CC3)n3c2c1OC[C@@H]3c1ccccn1` [Example 228, (4S)-7-(3,5-dimethylisoxazol-4-yl)-2-[4-(2-oxo-2-pyrrolidin-1-ylethyl)piperazin-1-yl]-4-pyridin-2-yl-4,5-dihydroimidazo[1,5,4-de][1,4]benzoxazine] is below 1000 nM; for `COn1c(=O)n2c3c(c(-c4c(C)noc4C)ccc31)CCC2c1ccccn1` (stereo not shown) [Example 122, 7-(3,5-Dimethylisoxazol-4-yl)-1-methoxy-4-pyridin-2-yl-5,6-dihydro-4H-imidazo[4,5,1-ij]quinolin-2(1H)-one trifluoroacetate] it is below 1000 nM; for `Cc1noc(C)c1-c1ccc2nc(N3CCC(NC(=O)C(C)C)CC3)n3c2c1OCC3c1ccccn1` (stereo not shown) [Example 244] it is below 1000 nM.
Still for that read-out and setting: the figure for `Cc1noc(C)c1-c1cc(F)c2nc(N(C)C)n3c2c1OCC3c1cccnc1` (stereo not shown) [Example 156, 7-(3,5-Dimethylisoxazol-4-yl)-9-fluoro-N,N-dimethyl-4-pyridin-3-yl-4,5-dihydroimidazo[1,5,4-de][1,4]benzoxazin-2-amine] is below 1000 nM.
Still for that read-out and setting: next, `Cc1noc(C)c1-c1ccc2nc(N3CCC(NC(=O)C(F)(F)F)CC3)n3c2c1OC[C@@H]3c1ccccn1` [Example 242, N-{1-[(4S)-7-(3,5-dimethylisoxazol-4-yl)-4-pyridin-2-yl-4,5-dihydroimidazo[1,5,4-de][1,4]benzoxazin-2-yl]piperidin-4-yl}-2,2,2-trifluoroacetamide]: below 1000 nM.
For the compound `CC(=O)N1CCCN(c2nc3ccc(-c4c(C)noc4C)c4c3n2[C@@H](c2ccccn2)CO4)CC1` [Example 148, (4S)-2-(4-Acetyl-1,4-diazepan-1-yl)-7-(3,5-dimethylisoxazol-4-yl)-4-pyridin-2-yl-4,5-dihydroimidazo[1,5,4-de][1,4]benzoxazine], the IC50 (Homo sapiens, 72 h) was below 1000 nM.
In the case of `Cc1noc(C)c1-c1ccc2nc(NC(C)CO)n3c2c1OCC3c1ccccc1` (single isomer, unassigned) [Example 31, 2-{[7-(3,5-Dimethylisoxazol-4-yl)-4-phenyl-4,5-dihydroimidazo[1,5,4-de][1,4]benzoxazin-2-yl]amino}propan-1-ol], the 50% inhibitory concentration (IC50) is below 1000 nM.
For the compound `Cc1noc(C)c1-c1cc(CNC(C)C)c2[nH]c(=O)n3c2c1OCC3c1ccccn1` (stereo not shown) [Example 253, 7-(3,5-Dimethylisoxazol-4-yl)-9-[(isopropylamino)methyl]-4-pyridin-2-yl-4,5-dihydroimidazo[1,5,4-de][1,4]benzoxazin-2(1H)-one], where the note is “Homo sapiens, 72 h”, the 50% inhibitory concentration (IC50) lay in the range of 1000 to 10000 nM.
As for `Cc1noc(C)c1-c1ccc2nc(N3CCN(C)CC3)n3c2c1OC[C@@H]3c1ccccn1` [Example 163, (4S)-7-(3,5-dimethylisoxazol-4-yl)-2-(4-methylpiperazin-1-yl)-4-pyridin-2-yl-4,5-dihydroimidazo[1,5,4-de][1,4]benzoxazine], the IC50 (Homo sapiens, 72 h) is below 1000 nM.
Same read-out and setting: the figure for `Cc1noc(C)c1-c1ccc2nc(N3CCNCC3)n3c2c1OC[C@@H]3c1ccccn1` [Example 150, (4S)-7-(3,5-Dimethylisoxazol-4-yl)-2-piperazin-1-yl-4-pyridin-2-yl-4,5-dihydroimidazo[1,5,4-de][1,4]benzoxazine trihydrochloride] is below 1000 nM; for `CCS(=O)(=O)N1CCCN(c2nc3ccc(-c4c(C)noc4C)c4c3n2[C@@H](c2ccccn2)CO4)CC1` [Example 248, (4S)-7-(3,5-dimethylisoxazol-4-yl)-2-[4-(ethylsulfonyl)-1,4-diazepan-1-yl]-4-pyridin-2-yl-4,5-dihydroimidazo[1,5,4-de][1,4]benzoxazine] it is below 1000 nM; for `Cc1noc(C)c1-c1ccc2nc(N3CC(O)C3)n3c2c1OC[C@@H]3c1ccccn1` [Example 165, 1-[(4S)-7-(3,5-dimethylisoxazol-4-yl)-4-pyridin-2-yl-4,5-dihydroimidazo[1,5,4-de][1,4]benzoxazin-2-yl]azetidin-3-ol] it is below 1000 nM.
The same measure, in the same setting: next, `Cc1noc(C)c1-c1cc(CO)c2[nH]c(=O)n3c2c1OCC3c1ccccn1` (stereo not shown) [Example 254, 7-(3,5-Dimethylisoxazol-4-yl)-9-(hydroxymethyl)-4-pyridin-2-yl-4,5-dihydroimidazo[1,5,4-de][1,4]benzoxazin-2(1H)-one]: below 1000 nM.
